Assay results: PMC11406233 (Proceedings of the National Academy of Sciences of the …, 2024)
Read-outs that look alike come from different tables or passages of the source.

Tests used:
rgSCoV2WT = assay: microbe, parasite or virus in culture; format: cell-based; conditions: Severe acute respiratory syndrome coronavirus 2, VeroE6/TMPRSS2, read-out: EC50±SD
[1] = tested on: SCoV2^WK521WT + SCoV2^WK521A191T; format: cell-based, SARS-CoV-2
SCoV2^WK521A191T [2] = tested on: SCoV2^WK521A191T; set-up: species or system SARS-CoV-2; conditions: read-out: EC50 from cell-based assay
rgSCoV2E166V = format: cell-based, SARS-CoV-2
SCoV2^WK521A191T [3] = tested on: SCoV2^WK521A191T; set-up: species or system SARS-CoV-2; conditions: read-out: EC50 from cell-based assay; remark: listed apart in the source
rgSCoV2L50F/E166V = format: cell-based, SARS-CoV-2
[4] = tested on: SCoV2^WK521WT + SCoV2^WK521E166V; format: cell-based, SARS-CoV-2
M^proE166V [5] = target: T1, M^proE166V (Severe acute respiratory syndrome coronavirus 2, UniProt P0DTD1, E3429V); format: binding, SARS-CoV-2
M^proE166V [6] = target: T1, M^proE166V; format: biochemical, SARS-CoV-2
SCoV2^WK521E166V = format: cell-based, SARS-CoV-2

SMILES | EC50 (rgSCoV2WT) | Pattern of replicability in CSRA [1] | EC50 (SCoV2^WK521A191T [2]) | EC50 (rgSCoV2E166V) | EC50 (SCoV2^WK521A191T [3]) | EC50 (rgSCoV2L50F/E166V) | SCoV2^WK521E166V population [4] | SCoV2^WK521WT population [4] | Complex formation with MproE166V in crystallization (M^proE166V [5]) | Factor of greater binding affinity to MproE166V than nirmatrelvir (M^proE166V [6]) | Difference in the EC50 values of NIR and TKB245 (SCoV2^WK521E166V)
COc1cccc2[nH]c(C(=O)N[C@@H](CC(C)C)C(=O)N[C@@H](C[C@@H]3CCNC3=O)C(=O)c3nc4ccccc4s3)cc12 [5h] | 13.5 µM | SCoV2^WK521A191T predominated SCoV2^WK521 throughout all the concentrations tested | > 100 µM | 13.5 ± 0.15 µM | 35 ± 0.08 µM | 13.4 ± 0.48 µM |  |  |  |  | 
CC(C)(C)[C@H](NC(=O)C(F)(F)F)C(=O)N1C[C@H]2[C@@H]([C@H]1C(=O)N[C@@H](C[C@@H]1CCNC1=O)C(=O)c1nc3c(F)cccc3s1)C2(C)C [TKB245] | 0.78 µM |  |  | 6.6 µM |  | 11.4 µM | 100% | 100% | TKB245 binds to M^proE166V | 6.8 | 207 fold
CC(C)(C)[C@H](NC(=O)C(F)(F)F)C(=O)N1C[C@H]2[C@@H]([C@H]1C(=O)N[C@H](C#N)C[C@@H]1CCNC1=O)C2(C)C [nirmatrelvir, reference compound] | 4.4 µM |  |  |  |  |  |  |  |  |  | 
